Results on one molecule are retold here after patent EP4205737A1, “COMPOSITION FOR PREVENTION, AMELIORATION, OR TREATMENT OF INFLAMMATORY DISEASES OR IMMUNE DISEASES COMPRISING GANCAONIN N AS ACTIVE INGREDIENT” (UNIVERSITY-INDUSTRY COOPERATION GROUP OF KYUNG HEE …, priority 2020, dated 2022).

Format in all cases: cell-based, human
One assay has as its system IL-1β. Kind of assay: Western blotting of IL-1β protein in LPS-stimulated A549 cells. As to conditions: LPS 5 µg/mL, 5 to 40 µM (FIG. 4B). As to the method:
(§1) RAW264.7 cells and A549 cells were dispensed into 6-well plates (1 × 10^6 cells/well) and cultured under conditions of 37°C and 5% CO2. After the culturing, the Raw 264.7 cells were treated with 1 µg/mL of lipopolysaccharide (LPS) and the A549 cells were treated with 5 µg/mL of lipopolysaccharide (LPS) and with 5 µM to 40 µM of gancaonin N, and the cells were cultured for 24 hours or 6 hours. Then, the cells were lysed using a lysis buffer. In addition, the left lung extracted from each mouse was lysed using RIPA buffer. SDS-PAGE electrophoresis was performed on the cell and tissue lysates to separate proteins by side, and 5% bovine serum albumin was used for culturing and for blocking antibodies against PGE2 (1:500), IL-1β (1:500), IL-6 (1:500), TNF-α (1:500), i-NOS (1:500), COX-2 (1:1000), P-ERK1/2 (1:1000), ERK1/2 (1:3000), P-p38 (1:1000), p38 (1:3000), NF-κB p65 (1:1000), Lamin B1 (1:1000), and β-actin (1: 5,000).
For the pro-inflammatory cytokines whose mRNA expression inhibition was confirmed as above, the expression level of the protein encoded by the mRNA was further checked. To determine the protein expression level, A549 cells were treated with LPS and gancaonin N as described in Examples 1 to 8, and the protein expression levels were checked.

Assay [1] relates to extracellular signal-regulated kinase (ERK). Kind of assay: MAPK/NF-κB signaling pathway: ERK in LPS-stimulated A549 cells. The protocol: as §1
(§2) To identify through which pathway the anti-inflammatory response occurs, the role of gancaonin N in the MAPK/NF-κB signaling pathway was investigated. […]

In the next assay the test system is p38. Kind of assay: MAPK/NF-κB signaling pathway: p38 in LPS-stimulated A549 cells. The protocol:
as §1, §2

For `COc1ccc(-c2coc3cc(O)c(CC=C(C)C)c(O)c3c2=O)c(O)c1` [gancaonin N, 5,7-dihydroxy-3-(2-hydroxy-4-methoxyphenyl)-6-(3-methylbut-2-enyl)chromen-4-one], the “protein expression of IL-1β” value in the assay with IL-1β is on record as “significantly inhibited”. Also, the “activity/protein expression levels of ERK” value in assay [1] (5µM to 40 µM 2 hours before LPS treatment (FIG. 5A)) was “significantly reduced”. In assay [1] (LPS, tested 5µM to 40 µM), the “amount of gancaonin N at which the inhibitory effect on the activity/protein expression levels of ERK was most excellent” value is 40 µM. Besides, in the assay on p38 (5µM to 40 µM 2 hours before LPS treatment (FIG. 5B)), the “activity/protein expression levels of p38” value is “significantly reduced”. Further, the “amount of gancaonin N at which the inhibitory effect on the activity/protein expression levels of p38 was most excellent” value with p38 (LPS, tested 5µM to 40 µM) stood at 20 µM.
